From article PMC8198049, “Synthesis and Evaluation of the Tetracyclic Ring-System of Isocryptolepine and Regioisomers for Antimalarial, Antiproliferative and Antimicrobial Activities” (Molecules, 2021)
Converted amounts (≈) assume the structure as drawn.

Key:
[1] = system: PC-3 (human prostate cancer); test: Antiproliferative assay (resazurin); format: cell-based; settings: for IC50: Homo sapiens, 72 h compound incubation, mean ± sem, two separate experiments; for % at 80 µM (PC-3): PC-3, 80 µM
Protocol: (§1) Compounds tested in the antiproliferative assays were tested in 11 dilution points (0.02 µM–40 µM or 0.04 µM–80 µM). […] HCT116 cells were maintained in McCoy’s 5A media (Life Technologies, CA, USA), MDA-MB-231 cells were cultured in DMEM media (Life Technologies) with 10 mM HEPES (Life Technologies), whilst PC-3 cells were maintained in RPMI media (Life Technologies). All media were supplemented with 10% heat-inactivated fetal bovine serum (Australian source; Corning, CA, USA) and all cells were incubated at 37 °C in a humidified incubator with 5% CO2. Cells were seeded in 384-well plates (Greiner Bio-One, NC, USA) using the respective complete media. After 24 h cell seeding, compounds were added and antiproliferative activity was determined using the resazurin assay after 72 h compound incubation. Briefly, cells were incubated with 60 µM resazurin (Cayman, MI, USA) for 6 h at 37 °C and fluorescence signals were measured using a microplate reader (EnSight, PerkinElmer, Waltham, MA, USA).

[2] = system: HCT116 (human colon cancer); test: Antiproliferative assay (resazurin); format: cell-based; settings: for IC50: Homo sapiens, HCT-116, 72 h compound incubation, mean ± sem, two separate experiments
Protocol: as §1

[3] = system: MDA-MB-231 (human breast adenocarcinoma); test: Antiproliferative assay (resazurin); format: cell-based; settings: for IC50: Homo sapiens, MDA-MB-231, 72 h compound incubation, mean ± sem, two separate experiments
Protocol: as §1

[4] = Cytotoxicity assay (resazurin-based viability); format: cell-based; settings: human, HEK293 cells, mean ± standard deviation, two separate experiments
Protocol: Fluorescence was measured using an EnSight plate reader (PerkinElmer, Waltham, MA, USA).

[5] = system: S. aureus (ATCC 25923); test: Bacterial growth inhibition assay; format: cell-based, Staphylococcus aureus; settings: Staphylococcus aureus, ATCC25923
Protocol: (§2) The prepared samples were tested for in vitro antimicrobial activity against E. faecalis, E. coli, P. aeruginosa, S. aureus, Streptococcus agalactiae and S. epidermis using gentamycin as a reference compound.
(§3) To determine and quantify antimicrobial activity, a bacteria growth inhibition assay in liquid media was executed. Compounds 2–3, 4, 8–10, 13–14, 16, 18, and 20 were tested against Staphylococcus aureus (ATCC 25923), Escherichia coli (ATCC 259233), Enterococcus faecialis (ATCC 29122), Pseudomonas aeruginosa (ATCC 27853) and Streptococcus agalactiae (ATCC 12386); all strains from LGC Standards (Teddington, UK). S. aureus, E. coli, and P. aeruginosa were grown in Muller Hinton broth (275730, Becton, Franklin Lakes, NJ, USA). E. faecalis and S. agalactiae were cultured in brain hearth infusion broth (53286, Sigma, St Louise, MO, USA). Fresh bacterial colonies were transferred in the respective medium and incubated at 37 °C overnight. The bacterial cultures were diluted to a culture density representing the log phase and µL/well were pipetted into a 96-well microtiter plate (734–2097, NunclonTM, Thermo Scientific, Waltham, MA, USA). The final cell density was 1500–15.000 colony forming units/well. The compound was diluted in 2% (v/v) DMSO in ddH2O, providing a final assay concentration of 50% of the prepared sample, since 50 µL of sample in DMSO/water were added to 50 µL bacterial culture. After adding the samples to the plates, they were incubated overnight at 37 °C and the growth was determined by measuring the optical density at λ = 600 nm (OD600) with a 1420 Multilabel Counter VICTOR3TM (Perkin Elmer, Waltham, MA, USA). A water sample was used as a reference control, growth medium without bacteria was used as a negative control and dilution series of gentamycin (A2712, Merck, Darmstadt, DE) from 32 to 0.01 µg/mL was used as positive control and visually inspected for bacterial growth. The positive control was used as a system suitability test and the results of the antimicrobial assay were only considered valid when positive control was passed. The final concentration of DMSO in the assays was ≤2% (v/v) and was known to have no effect in the tested bacteria. The data was processed using GraphPad Prism 8.

[6] = system: E. faecalis (ATCC 29122); test: Bacterial growth inhibition assay; format: cell-based, Enterococcus faecialis; settings: Enterococcus faecalis, ATCC29122
Protocol: as §2, §3

[7] = system: Plasmodium falciparum 3D7 strain; test: Antiplasmodial imaging assay; format: cell-based; settings: P. falciparum 3D7, 72 h, mean ± standard deviation, two separate experiments; for IC50: Plasmodium falciparum
Protocol: (§4) Compounds tested in the antiproliferative assays were tested in 11 dilution points (0.02 µM–40 µM or 0.04 µM–80 µM).
(§5) Antiplasmodial activity was determined as previously described by Duffy and Avery. […] After incubation, plates were stained with 4’,6-diamidino-2-phenylindole (DAPI) in a permeabilization buffer for 5 h at rt in the dark. Plates were imaged on the Opera confocal microplate image reader (PerkinElmer).

[8] = Antiplasmodial imaging assay; format: cell-based, Plasmodium falciparum; settings: human (HEK293) and Plasmodium falciparum (3D7), HEK293 cells versus Plasmodium falciparum 3D7 culture; HEK293 vs 3D7; read-out: SI (selectivity index = cytotoxicity in HEK293/activity in 3D7)
Protocol: as §4, §5

[9] = system: Streptococcus agalactiae (ATCC 12386); test: Bacterial growth inhibition assay; format: cell-based; settings: ATCC12386
Protocol: as §2, §3

[10] = system: E. coli (ATCC 259233); test: Bacterial growth inhibition assay; format: cell-based, Escherichia coli; settings: Escherichia coli, ATCC259233
Protocol: as §2
as §3, with “The final concentration of DMSO in the assays was ≤2% (v/v) and was known to have no effect in the tested bacteria. The data was processed using GraphPad Prism 8.” left out

[11] = system: E. faecalis, E. coli, P. aeruginosa, S. aureus, Streptococcus agalactiae and S. epidermis; test: Antimicrobial and biofilm inhibition assays, whole panel of tested strains; format: cell-based; settings: five bacterial strains and biofilm formation; tested up to 100 µM
Protocol: as §2
To determine and quantify antimicrobial activity, a bacteria growth inhibition assay in liquid media was executed. Compounds 2–3, 4, 8–10, 13–14, 16, 18, and 20 were tested against Staphylococcus aureus (ATCC 25923), Escherichia coli (ATCC 259233), Enterococcus faecialis (ATCC 29122), Pseudomonas aeruginosa (ATCC 27853) and Streptococcus agalactiae (ATCC 12386); all strains from LGC Standards (Teddington, UK). S. aureus, E. coli, and P. aeruginosa were grown in Muller Hinton broth (275730, Becton, Franklin Lakes, NJ, USA). E. faecalis and S. agalactiae were cultured in brain hearth infusion broth (53286, Sigma, St Louise, MO, USA). Fresh bacterial colonies were transferred in the respective medium and incubated at 37 °C overnight. The bacterial cultures were diluted to a culture density representing the log phase and µL/well were pipetted into a 96-well microtiter plate (734–2097, NunclonTM, Thermo Scientific, Waltham, MA, USA). […] After adding the samples to the plates, they were incubated overnight at 37 °C and the growth was determined by measuring the optical density at λ = 600 nm (OD600) with a 1420 Multilabel Counter VICTOR3TM (Perkin Elmer, Waltham, MA, USA). […]

[12] = system: S. epidermis (ATCC 35984); test: Biofilm formation inhibition assay; format: cell-based, Staphylococcus epidermidis; settings: inhibition of biofilm formation
Protocol: as §2
For testing the inhibition of biofilm formation, the biofilm-producing Staphylococcus epidermidis (ATCC 35984) was grown in Tryptic Soy Broth (TSB, 105459, Merck, Kenilworth, NJ, USA) overnight at 37 °C. The overnight culture was diluted in fresh medium with 1% glucose (D9434, Sigma) before being transferred to a 96-well microtiter plate; 50 µL/well were incubated overnight with 50 µL of the test compound dissolved in 2% (v/v) DMSO aq. added in duplicates. The bacterial culture was removed from the plate and the plate was washed with tap water. The biofilm was fixed at 65 °C for 1 h before 70 µL 0.1% crystal violet (115940, Millipore, Burlington, MA, USA) was added to the wells for 10 min of incubation and 70 µL of 70% ethanol was then added to each well and the plate incubated on a shaker for 5–10 min. Biofilm formation inhibition was assessed by the presence of violet color and measured at […] absorbance using a 1420 Multilabel Counter VICTOR3TM; 50 µL of a non-biofilm forming Staphylococcus haemolyticus (clinical isolate 8-7A, University Hospital of North Norway Tromsø, Norway) mixed in 50 µL autoclaved Milli-Q water was used as a control; 50 µL S. epidermidis mixed in 50 µL autoclaved Milli-Q water was used as the control for biofilm formation; and 50 µL TSB with 50 µL autoclaved Milli-Q water was used as a medium blank control.

[13] = system: HCT116, MDA-MB-231 and PC-3; test: Antiproliferative assay, whole panel of cancer cell lines; format: cell-based, human
Protocol: as §1

| SMILES | IC50 [1] [nM] | IC50 [2] [nM] | IC50 [3] [nM] | MIC [5] [µM] | IC50 [7] [nM] | MIC [9] [µM] | IC50 at 72 h [4] [nM] | selectivity ratio at 72 h [8] | activity against the panel of cancer cell lines [13] | further results |
| --- | --- | --- | --- | --- | --- | --- | --- | --- | --- | --- |
| Fc1ccc2[nH]c3ccc4ncccc4c3c2c1 [Compound 9b, 10-Fluoro-7H-pyrido[2,3-c]carbazole] | – | – | – | – | – | – | – | – | – | MBIC [12]: 100 µM; melting point: 256 to 257 °C |
| C[n+]1cccc2c3c(ccc21)[nH]c1ccccc13 [Compound 10, 4-Methyl-7H-pyrido[2,3-c]carbazolium Iodide] | – | – | – | – | 128 ± 2 | – | – | 214 | no activity | % at 40 µM (PC-3) ([1]; PC-3, 40 µM): 36% at 40 µM; % at 40 µM (printed in HCT116 IC50 column) ([2]; HCT116, 40 µM): 38% at 40 µM; % at 40 µM (printed in MDA-MB-231 IC50 column) ([3]; MDA-MB-231, 40 µM): 24% at 40 µM |
| c1ccc2nc3[nH]c4ccccc4c3cc2c1 [Compound 13, 6H-Indolo[2,3-b]quinoline] | – | – | – | – | – | – | – | – | inactive | 3D7 IC50 [7]: no antiplasmodial inhibition |
| c1ccc2c(c1)ncc1c3ccccc3[nH]c21 [Compound 14, 11H-indolo[3,2-c]quinoline] | – | 3570 ± 309 | – | – | 977 ± 11 | – | 18460 ± 183 | 18.9 | poor activity | % at 80 µM (PC-3) [1]: 30% at 80 µM ^f; % at 80 µM (printed in MDA-MB-231 IC50 column) ([3]; MDA-MB-231, 80 µM): 36% at 80 µM ^e |
| C[n+]1cccc2c3[nH]c4ccccc4c3ccc21 [Compound 21, 4-Methyl-11H-pyrido[3,2-a]carbazolium Iodide] | – | – | – | – | 380 ± 0.5 | – | – | – | no activity | – |
| Cn1cc2c3ccccc3nc-2c2ccccc21 [Isocryptolepine (3a), isocryptolepine] | 1821 ± 7 | 667 ± 45 | 695 ± 130 | 100 (≈ 23.2 µg/mL) | 1210 ± 84 | 100 (≈ 23.2 µg/mL) | 2070 ± 70 | 1.7 | – | MBIC [12]: 100 µM; MIC [10]: 100 µM (≈ 23.2 µg/mL); MIC [6]: 100 µM (≈ 23.2 µg/mL) |
| Cn1c2nc3ccccc3c-2cc2ccccc21 [Neocryptolepine (2), Neocryptolepine] | – | 6220 ± 90 | 10400 | – | 7249 ± 6 | 100 (≈ 23.2 µg/mL) | > 20000 | > 2.8 | – | % at 80 µM (PC-3) [1]: 27% at 80 µM |

More lines, main results first:

| IC50 [1] [nM] | IC50 [2] [nM] | IC50 [3] [nM] | MIC [5] [µM] | IC50 [7] [nM] | MIC [9] [µM] | SMILES | IC50 at 72 h [4] [nM] | selectivity ratio at 72 h [8] | activity against the panel of cancer cell lines [13] | further results |
| --- | --- | --- | --- | --- | --- | --- | --- | --- | --- | --- |
| 1630 ± 173 | 721 ± 27 | 594 ± 140 | 100 (≈ 21.8 µg/mL) | 548 ± 3 | – | c1ccc2c(c1)Nc1ccnc3cccc-2c13 [Compound 4a, 7H-pyrido[4,3,2-gh]phenanthridine] | 2830 ± 92 | 5.2 | – | MIC [6]: 100 µM (≈ 21.8 µg/mL) |
| 24 ± 3 | 166 ± 16 | 1000 ± 297 | 75 (≈ 18.6 µg/mL) | 866 ± 2 | 75 (≈ 18.6 µg/mL) | COc1cnc2cccc3c2c1Nc1ccccc1-3 [Compound 4b, 6-methoxy-7H-pyrido[4,3,2-gh]phenanthridine] | 3657 ± 2 | 4.2 | – | MIC [10]: 50 µM (≈ 12.4 µg/mL) |
| 2570 ± 114 | 444 ± 52 | 360 ± 51 | 75 (≈ 17.4 µg/mL) | 1698 ± 5 | – | CN1C=Cc2nc3ccccc3c3cccc1c23 [Compound 8a, 4-Methyl-4H-pyrido[4,3,2-gh]phenanthridine] | 7410 ± 207 | 4.4 | – | MIC [6]: 75 µM (≈ 17.4 µg/mL); melting point: 182 to 183 °C |
| 4540 ± 361 | 871 ± 172 | 814 ± 162 | – | 1550 ± 27 | – | COC1=CN(C)c2cccc3c2c1nc1ccccc13 [Compound 8b, 6-Methoxy-4-methyl-4H-pyrido[4,3,2-gh]phenanthridine] | 5057 ± 45 | 3.3 | – | activity against any of the tested strains [11]: complete loss of activity |
| 17800 | 20000 | 21500 | – | 6825 ± 61 | 100 (≈ 21.8 µg/mL) | c1ccc2c(c1)[nH]c1ccc3ncccc3c12 [Compound 9a, 7H-Pyrido[2,3-c]carbazole] | > 80000 | > 11.7 | – | MBIC [12]: 100 µM; melting point: 204 to 205 °C; 3D7 IC50 [7]: little to no activity |
